Reference: publication PMC8838037, “Design, Synthesis and Molecular Docking Study of Novel 3-Phenyl-β-Alanine-Based Oxadiazole Analogues as Potent Carbonic Anhydrase II Inhibitors” (Molecules, 2022)

Molecular target: T1, bovine erythrocyte CA-II (Bos taurus, UniProt P00921)
T1 construct: purified bovine erythrocyte CA-II; from tissue; host or cells: bovine erythrocytes
Assay: Carbonic anhydrase II inhibition assay (colorimetric, 4-nitrophenyl acetate substrate)
Type: biochemical
Settings: for IC50: N/A = Not active; for % Inhibition: test concentration not given
Protocol: 20 µL of tested compounds were incubated with the enzyme carbonic anhydrase II (EC 4.2.1.1) for 15 min in 96-well flat bottom plate. The rate of product formation was monitored with the addition of 20 µL of 4-NPA as substrate, prepared in ethanol at the final concentration of 0.7 mM at 25 °C for 30 min with regular intervals of 1 min, by using spectrophotometer (xMark^TM Microplate, Bio-Rad, Hercules, CA, USA). HEPES-tris was used as a buffer for the reaction at the final concentration of 20 mM at pH 7.4.

T1 sequence (P00921 2-260): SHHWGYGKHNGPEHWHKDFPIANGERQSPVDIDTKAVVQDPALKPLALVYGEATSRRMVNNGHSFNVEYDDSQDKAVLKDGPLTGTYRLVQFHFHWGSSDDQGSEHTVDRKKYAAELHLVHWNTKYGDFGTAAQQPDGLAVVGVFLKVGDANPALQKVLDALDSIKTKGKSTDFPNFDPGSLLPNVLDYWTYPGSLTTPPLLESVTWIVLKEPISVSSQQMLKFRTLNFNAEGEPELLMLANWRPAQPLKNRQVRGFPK

IC50	% Inhibition	Compound
18.1 ± 1.31 µM	58.0%	CC(C)(C)OC(=O)N[C@@H](Cc1nnc(-c2ccc(O)cc2)o1)c1ccccc1 [Compound 4i, Tert-Butyl (S)-(2-(5-(4-hydroxyphenyl)-1,3,4-oxadiazol-2-yl)-1-phenylethyl) carbamate]
26.6 ± 1.47 µM	96.7%	COc1ccc(-c2nnc(C[C@H](NC(=O)OC(C)(C)C)c3ccccc3)o2)cc1OC [Compound 4j, Tert-Butyl (S)-(2-(5-(3,4-dimethoxyphenyl)-1,3,4-oxadiazol-2-yl)-1-phenylethyl) carbamate]
22.4 ± 1.43 µM	87.8%	COc1ccc(OC)c(-c2nnc(C[C@H](NC(=O)OC(C)(C)C)c3ccccc3)o2)c1 [Compound 4k, Tert-Butyl (S)-(2-(5-(2,5-dimethoxyphenyl)-1,3,4-oxadiazol-2-yl)-1-phenylethyl) carbamate]
53.6 ± 0.96 µM	67.6%	CC(C)(C)OC(=O)N[C@@H](Cc1nnc(-c2ccc(Cl)cc2)o1)c1ccccc1 [Compound 4l, Tert-Butyl (S)-(2-(5-(4-chlorophenyl)-1,3,4-oxadiazol-2-yl)-1-phenylethyl) carbamate]

Further lines, the compound ahead of its results:

Compound	IC50	% Inhibition
CC(C)(C)OC(=O)N[C@@H](Cc1nnc(-c2ccccn2)o1)c1ccccc1 [Compound 4a, Tert-Butyl (S)-(1-phenyl-2-(5-(pyridin-2-yl)-1,3,4-oxadiazol-2-yl)ethyl) carbamate]	12.1 ± 0.86 µM	96.2%
CC(C)(C)OC(=O)N[C@@H](Cc1nnc(-c2ccccc2O)o1)c1ccccc1 [Compound 4b, Tert-Butyl (S)-(2-(5-(2-hydroxyphenyl)-1,3,4-oxadiazol-2-yl)-1-phenylethyl) carbamate]	19.1 ± 0.88 µM	93.5%
Tert-Butyl(S)-(1-phenyl-2-(5-phenyl-1,3,4-oxadiazol-2-yl)ethyl) carbamate [Compound 4c]	13.8 ± 0.64 µM	95.5%
Tert-Butyl(S)-(2-(5-(4-methoxyphenyl)-1,3,4-oxadiazol-2-yl)-1-phenylethyl) carbamate [Compound 4d]		29.0%
